Patent publication US8399459B2, “1,4 oxazines as BACE1 and/or BACE2 inhibitors” (Hoffmann-La Roche Inc., priority 2011, dated 2013)

Assays:
[1] = target: T1, BACE1 (Homo sapiens, UniProt P56817); experiment: Cellular Aβ-lowering assay (Aβ40 ELISA, HEK293 cells expressing human APP695); type: cell-based; conditions: HEK293 cells stably expressing human APP695; Aβ40 in supernatant after 18-20 hrs
T1 construct: Human HEK293 cells which are stably transfected with a vector expressing a cDNA of the human APP wt gene (APP695); endogenous in cells; host or cells: HEK293 (human), stably transfected with human APP695 wt only
T1 sequence (P56817 46-501): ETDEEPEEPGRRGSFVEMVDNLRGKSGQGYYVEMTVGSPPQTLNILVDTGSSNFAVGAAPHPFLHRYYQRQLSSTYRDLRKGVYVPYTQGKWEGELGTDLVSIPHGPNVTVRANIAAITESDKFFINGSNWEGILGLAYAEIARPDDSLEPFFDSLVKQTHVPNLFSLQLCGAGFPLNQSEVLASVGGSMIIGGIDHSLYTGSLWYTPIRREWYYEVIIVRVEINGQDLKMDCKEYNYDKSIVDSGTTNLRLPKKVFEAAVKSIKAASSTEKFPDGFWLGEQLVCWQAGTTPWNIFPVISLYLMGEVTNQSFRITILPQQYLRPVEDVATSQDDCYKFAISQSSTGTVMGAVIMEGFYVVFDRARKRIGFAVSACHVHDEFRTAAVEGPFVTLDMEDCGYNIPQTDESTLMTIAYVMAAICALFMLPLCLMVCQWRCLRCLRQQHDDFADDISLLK
Method: Cellular Aβ-Lowering Assay:
Human HEK293 cells which are stably transfected with a vector expressing a cDNA of the human APP wt gene (APP695) were used to assess the potency of the compounds in a cellular assay. The cells were seeded in 96-well microtiter plates in cell culture medium (Iscove, plus 10% (v/v) fetal bovine serum, glutamine, penicillin/streptomycin) to about 80% confluence and the compounds were added at a 10× concentration in 1/10 volume of medium without FCS containing 8% DMSO (final concentration of DMSO was kept at 0.8% v/v). After 18-20 hrs incubation at 37° C. and 5% CO2 in a humidified incubator the culture supernatant was harvested for the determination of Aβ40 concentrations. 96well ELISA plates (e.g., Nunc MaxiSorb) were coated with monoclonal antibody which specifically recognize the C-terminal end of Aβ40 (Brockhaus et al., NeuroReport 9, 1481-1486; 1998). After blocking of non-specific binding sites with e.g. 1% BSA and washing, the culture supernatants were added in suitable dilutions together with a horseradish peroxidase-coupled Aβ detection antibody (e.g., antibody 4G8, Senetek, Maryland Heights, Mo.) and incubated for 5 to 7 hrs. Subsequently the wells of the microtiter plate were washed extensively with Tris-buffered saline containing 0.05% Tween 20 and the assay was developed with tetramethylbenzidine/H2O2 in citric acid buffer. After stopping the reaction with one volume 1 N H2SO4 the reaction was measured in an ELISA reader at 450 nm wavelength. The concentrations of Aβ in the culture supernatants were calculated from a standard curve obtained with known amounts of pure Aβ peptide.

[2] = target: T2, P-gp (human MDR1) (Homo sapiens, UniProt P08183); experiment: p-gp (P-glycoprotein) assay, bidirectional transcellular transport in LLC-PK1 and L-MDR1 cells; type: in vitro ADME; conditions: presumably transport efflux ratio (ER)
T2 construct: host or cells: LLC-PK1 (porcine kidney epithelial cell line)
T2 sequence (P08183 whole entry): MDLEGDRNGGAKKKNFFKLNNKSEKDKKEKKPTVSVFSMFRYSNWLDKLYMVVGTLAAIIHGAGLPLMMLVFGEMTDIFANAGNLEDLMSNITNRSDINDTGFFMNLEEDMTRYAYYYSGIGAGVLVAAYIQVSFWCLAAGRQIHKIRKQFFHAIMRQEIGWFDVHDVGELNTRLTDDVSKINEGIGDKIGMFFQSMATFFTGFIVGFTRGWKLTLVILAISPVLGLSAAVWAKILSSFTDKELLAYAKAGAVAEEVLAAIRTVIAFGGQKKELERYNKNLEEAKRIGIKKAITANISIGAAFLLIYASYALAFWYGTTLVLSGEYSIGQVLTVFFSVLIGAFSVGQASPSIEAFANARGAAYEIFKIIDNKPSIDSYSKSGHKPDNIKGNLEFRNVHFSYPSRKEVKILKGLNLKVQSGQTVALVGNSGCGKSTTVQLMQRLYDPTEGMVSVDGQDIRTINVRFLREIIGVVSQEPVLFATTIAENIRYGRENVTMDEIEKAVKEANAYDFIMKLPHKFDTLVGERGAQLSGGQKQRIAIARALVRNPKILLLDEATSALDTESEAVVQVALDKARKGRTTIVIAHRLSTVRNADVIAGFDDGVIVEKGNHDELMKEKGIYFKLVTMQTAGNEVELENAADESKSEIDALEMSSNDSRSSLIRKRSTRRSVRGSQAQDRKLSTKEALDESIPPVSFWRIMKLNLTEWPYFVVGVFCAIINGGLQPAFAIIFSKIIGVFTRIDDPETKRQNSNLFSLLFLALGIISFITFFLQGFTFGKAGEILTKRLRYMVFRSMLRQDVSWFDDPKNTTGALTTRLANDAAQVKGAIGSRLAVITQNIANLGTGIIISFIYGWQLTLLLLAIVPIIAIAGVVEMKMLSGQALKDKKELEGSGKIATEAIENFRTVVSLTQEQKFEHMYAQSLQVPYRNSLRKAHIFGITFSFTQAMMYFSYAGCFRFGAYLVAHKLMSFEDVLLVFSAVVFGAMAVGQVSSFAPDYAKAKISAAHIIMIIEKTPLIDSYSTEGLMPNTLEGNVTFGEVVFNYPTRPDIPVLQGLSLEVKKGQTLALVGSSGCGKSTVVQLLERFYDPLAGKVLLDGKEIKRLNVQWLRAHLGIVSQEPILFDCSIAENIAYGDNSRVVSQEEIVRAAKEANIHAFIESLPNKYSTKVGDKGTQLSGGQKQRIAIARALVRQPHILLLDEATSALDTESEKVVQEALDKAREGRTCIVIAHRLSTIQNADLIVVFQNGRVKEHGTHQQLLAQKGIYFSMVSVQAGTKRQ
Method: p-gp (P-glycoprotein) Assay
Cell Lines and Vesicles Used for Transport Experiments
The LLC-PK1 cell line (ATCC #CL-101) is a porcine kidney epithelial cell line. The MDR1 (Human multidrug resistance protein 1) transfected cell lines were obtained from Dr. A. Schinkel, The Netherlands Cancer Institute (Amsterdam, The Netherlands). All cell lines were cultured on permeable inserts (Costar, 0.33 cm^2 area, pore size 3.0 μm, low density) at 4.5·10^5 cells/cm^2. Transport measurements were performed at day 4 after seeding. Tightness of the cell monolayer was controlled via the permeability of the extracellular marker lucifer yellow (10 μM). […]
The method used for transport experiments was reported Schwab et al. (see above.). […] Concentrations of substrate in both compartments were determined by scintillation counting (digoxin) or by LC-MS/MS. The extracellular marker (lucifer yellow) was quantified using a spectrafluor plus reader at 430/535 nm (Ex/Em). In each experiment 3 different inserts were used for each condition and a mean was calculated. […]
[formula] where Papp, A, C0, and dQ/dt represent the apparent permeability, the filter surface area, the initial concentration, and the amount transported per time period, respectively. Papp values were calculated on the basis of a single time point (2 h). Transport efflux ratios (ER) were calculated as follows: […]

[3] = target: T3, CYP3A4 (Homo sapiens, UniProt P08684); experiment: CYP inhibition assay, human liver microsomes, midazolam 1′hydroxylase; type: in vitro ADME; conditions: pooled human liver microsomes, read-out: CYP IC50 3A4
T3 construct: 0.2 mg/ml pooled human liver microsomes; from tissue; host or cells: pooled human liver microsomes
T3 sequence (P08684 whole entry): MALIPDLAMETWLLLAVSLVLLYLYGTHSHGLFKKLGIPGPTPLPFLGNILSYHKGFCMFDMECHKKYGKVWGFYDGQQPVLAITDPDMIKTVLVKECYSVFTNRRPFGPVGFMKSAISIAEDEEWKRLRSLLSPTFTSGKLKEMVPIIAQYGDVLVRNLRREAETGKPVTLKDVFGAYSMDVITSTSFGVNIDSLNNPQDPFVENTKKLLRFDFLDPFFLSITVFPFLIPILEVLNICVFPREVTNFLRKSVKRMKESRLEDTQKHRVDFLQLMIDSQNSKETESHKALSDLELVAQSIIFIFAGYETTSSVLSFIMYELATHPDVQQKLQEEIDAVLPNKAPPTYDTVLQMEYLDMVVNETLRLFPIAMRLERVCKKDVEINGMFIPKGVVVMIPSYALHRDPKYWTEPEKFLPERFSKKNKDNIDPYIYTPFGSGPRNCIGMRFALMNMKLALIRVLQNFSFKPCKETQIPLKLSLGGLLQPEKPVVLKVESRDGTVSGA
Method: Inhibition of cytochromes P450 (CYPs) 2C9, 2D6 and 3A4 was assessed using human liver microsomes and CYP-selective substrate metabolism reactions. 50 μl incubations were made up containing (finally) 0.2 mg/ml pooled human liver microsomes, 5 μM substrate (diclofenac for CYP2C9 [4′hydroxylase], dextromethorphan for CYP2D6 [O-demethylase] or midazolam for CYP3A4 [1′hydroxylase]), 0.25 μL DMSO containing test inhibitor and NADPH regenerating system. Test inhibitor concentrations of 50, 16.7, 5.6, 1.9, 0.6 and 0.2 μM were assessed in singlicate. Incubations were prewarmed to 37° C. for 10 minutes before initiation by addition of NADPH regenerating system. Incubations were quenched after 5 minutes (20 minutes for dextromethorphan) by addition of 50 μl cold acetonitrile containing 20 ng/ml 4-OH-diclofenac-13C6, 20 ng/mL dextrorphan-D3 and 20 ng/mL 1-OH-midazolam-D4. Quenched incubates were stored at −20° C. for at least 1 hour before centrifugation (20,000×g, 20 minutes). Supernatants were removed and diluted 1:1 with water prior to analysis using a RapidFire sample injector system and API4000 mass spectrometer. Peak areas for substrate, metabolite and stable-labelled metabolite standard were determined using MS/MS. The peak area ratios between the metabolite generated by the enzymatic reaction and the internal standard were used in subsequent calculations. The percentage of (DMSO) control activity was calculated for each incubate and IC50 values estimated by non-linear regression. Sulfaphenazole, quinidine or ketoconazole were tested in each CYP2C9, CYP2D6 or CYP3A4 inhibition experiment, respectively, to ensure assay sensitivity and reproducibility. (Validated assays for human cytochrome P450 activities, R. L. Walsky and R. S. Obach, Drug Metabolism and Disposition 32: 647-660, 2004. and S. Fowler and H. Zhang, The AAPS Journal, Vol. 10, No. 2, 410-424, 2008.)

IC50 [1] [nM]	efflux ratio at 2 h [2]	IC50 [3] [nM]	SMILES
980	11	> 50000	CC1(c2cc(-c3cncnc3)ccc2F)COCC(N)=N1 (stereo not drawn) [Example 36, 5-(2-Fluoro-5-pyrimidin-5-yl-phenyl)-5-methyl-5,6-dihydro-2H-[1,4]oxazin-3-ylamine]
1530	1.1	> 50000	CC1(c2cccc(-c3cc(Cl)cc(Cl)c3)c2)COCC(N)=N1 (stereo not drawn) [Example 32, 5-(3′,5′-Dichloro-biphenyl-3-yl)-5-methyl-5,6-dihydro-2H-[1,4]oxazin-3-ylamine]
